Test systems include SNB-75; KM12; T47D; SK-OV-3; SNB-19; M14; A549; SN12C; K562; SK-MEL-5; UACC-62; SW-620; RPMI-8226; EKVX; OVCAR-8; A498; SF-295; IGROV-1; UO-31; SF-539.
What all share (experiment): NCI tumour cell line growth inhibition, 48 h

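48-hour exposure; five concentrations; linearly interpolated endpoints. At the GI50, growth is halved.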 The source made the active and inactive calls. Cut-off read from the data, not from the text of the source: active = GI50 up to about 1.1 µM and inactive = higher.

For the molecule `Cc1cc2c(O)nc(N)nc2nc1C`, the GI50 with SNB-75, in the test on KM12, in the test on T47D, in the test on SK-OV-3, in the test with SNB-19 and in the test on M14 was > 100 µM (inactive) throughout. For the same molecule, the GI50 in the test with A549, in the test with SN12C, in the test with K562, in the test with SK-MEL-5, with UACC-62 and in the test on SW-620 was > 100 µM (inactive) each time. The GI50 in the test on RPMI-8226, in the test on EKVX, in the test on OVCAR-8, with A498, with SF-295 and in the test on IGROV-1 was > 100 µM (inactive) each time. In addition, in the test on UO-31, the GI50 was > 100 µM (inactive).

For the molecule `COc1cc2c3cc1Oc1c(OC)c(OC)cc4c1C(Cc1ccc(O)c(c1)-c1cc(ccc1OC)CC3N(C)CC2)N(C)CC4` (centres undefined), the GI50 with SNB-75 was 18.7 µM (inactive); with KM12, 17.5 µM (inactive); in the test with T47D, 24.2 µM (inactive); in the test on SK-OV-3 it was 72.8 µM (inactive); with SNB-19 it was 22.3 µM (inactive); with M14, 3.18 µM (inactive). Besides, the GI50 with A549 is 24.5 µM (inactive); with SN12C, 15.6 µM (inactive); in the test with K562, 6 µM (inactive); with SF-539, 7.08 µM (inactive); in the test on SK-MEL-5, 14.8 µM (inactive); in the test with UACC-62, 23.9 µM (inactive). Further, the GI50 with SW-620 was 22.3 µM (inactive); in the test on EKVX, 25.6 µM (inactive); with OVCAR-8, 17.4 µM (inactive); in the test with A498, 23.2 µM (inactive); with SF-295 it was 16.5 µM (inactive); in the test with IGROV-1, 22.1 µM (inactive). Besides, in the test with UO-31, the GI50 is 13.9 µM (inactive).

Take `OC(CCN1CCN(CCOC(c2ccccc2)c2ccccc2)CC1)c1ccc(Br)cc1` (centres undefined): the GI50 in the test on SNB-75 is 12.8 µM (inactive); in the test with KM12, 11.4 µM (inactive); in the test on T47D, 10.4 µM (inactive); with SK-OV-3 it was 13.1 µM (inactive); in the test with SNB-19, 15.8 µM (inactive); in the test with M14, 3.27 µM (inactive). In addition, the GI50 in the test on A549 is 14.9 µM (inactive); with SN12C, 11.8 µM (inactive); in the test on SF-539, 12.5 µM (inactive); in the test with SK-MEL-5 it was 3.53 µM (inactive); in the test on UACC-62, 10.6 µM (inactive); in the test with SW-620, 16.8 µM (inactive). Besides, the GI50 is 11 µM (inactive) in the test with EKVX; 6.25 µM (inactive) in the test with OVCAR-8; 3.72 µM (inactive) with A498; 15.6 µM (inactive) with SF-295; 10.9 µM (inactive) in the test with IGROV-1; 2.38 µM (inactive) in the test with UO-31.

For `CCSC1=N/C(=C\c2ccc(N(C)C)cc2)C(Cl)=N1`, the GI50 is > 100 µM (inactive) in the test with SNB-75; > 100 µM (inactive) in the test on KM12; 37.7 µM (inactive) in the test with T47D; > 100 µM (inactive) with SK-OV-3; > 100 µM (inactive) in the test on SNB-19; > 100 µM (inactive) in the test on M14. For the same molecule, the GI50 with A549 is > 100 µM (inactive); in the test on SN12C it was > 100 µM (inactive); with SK-MEL-5 it was > 100 µM (inactive); in the test on UACC-62 it was > 100 µM (inactive); in the test on SW-620 it was > 100 µM (inactive); in the test with RPMI-8226 it was 59.3 µM (inactive). Moreover, the GI50 in the test with EKVX, in the test with OVCAR-8, in the test with A498, in the test with SF-295, in the test on IGROV-1 and with UO-31 was > 100 µM (inactive) each time.

On to `CC(Nc1ccc(Cl)cc1)c1ccncc1` (centres undefined), for which the GI50 in the test on SNB-75 is > 100 µM (inactive); with KM12 it was 22.3 µM (inactive); in the test with T47D, 42.3 µM (inactive); in the test on SK-OV-3, 0.0315 µM (active); with SNB-19 it was > 100 µM (inactive); with M14 it was > 100 µM (inactive). Besides, the GI50 is > 100 µM (inactive) in the test with A549; > 100 µM (inactive) with SN12C; 75.3 µM (inactive) in the test with K562; > 100 µM (inactive) in the test with SF-539; 36.6 µM (inactive) in the test with SK-MEL-5; > 100 µM (inactive) with SW-620. In addition, the GI50 in the test on RPMI-8226 was 12.4 µM (inactive); with EKVX, 75.5 µM (inactive); in the test with OVCAR-8 it was > 100 µM (inactive); in the test on A498, 81.7 µM (inactive); in the test on SF-295, 72.6 µM (inactive); in the test on IGROV-1, 62.5 µM (inactive). In the test with UO-31, the GI50 is 63.1 µM (inactive).

Turning to `Nc1nc(=S)n(-c2ccc(Cl)cc2)c2nc3ccccc3cc12`, the GI50 in the test with SNB-75 was 43.5 µM (inactive); in the test with KM12, 29.3 µM (inactive); in the test on T47D it was 18.7 µM (inactive); in the test on SK-OV-3, 22.7 µM (inactive); in the test with SNB-19, > 100 µM (inactive); with M14, 84.9 µM (inactive). Moreover, the GI50 in the test with A549 was 97.7 µM (inactive); in the test with SN12C it was > 100 µM (inactive); in the test with K562 it was 66.7 µM (inactive); in the test with SK-MEL-5, 51.8 µM (inactive); in the test with UACC-62 it was 40.9 µM (inactive); in the test on SW-620 it was 95.5 µM (inactive). Further, the GI50 in the test on RPMI-8226 is 59.6 µM (inactive); in the test on EKVX, 15.3 µM (inactive); in the test on OVCAR-8, 50.1 µM (inactive); in the test on A498, > 100 µM (inactive); with SF-295, 64.6 µM (inactive); in the test on IGROV-1 it was 1.69 µM (inactive). Besides, the GI50 in the test with UO-31 was 33.6 µM (inactive).

On to `CCC(C)N1CN(c2ccccc2)C2(CCN(CCCC(=O)c3ccc(F)cc3)CC2)C1=O` (centres undefined), for which the GI50 with SNB-75 was 19.5 µM (inactive); in the test with T47D, 1.68 µM (inactive); with SK-OV-3 it was 9.29 µM (inactive); in the test on M14 it was 14.3 µM (inactive); in the test with A549, 6.03 µM (inactive); in the test with SN12C, 3.88 µM (inactive). In addition, the GI50 in the test with K562 is 9.18 µM (inactive); with SF-539, 7.71 µM (inactive); in the test with SK-MEL-5 it was 1.19 µM (inactive); in the test on UACC-62, 16.6 µM (inactive); in the test with SW-620, 3.77 µM (inactive); in the test with RPMI-8226 it was 5.52 µM (inactive). The GI50 with EKVX was 10.8 µM (inactive); in the test with OVCAR-8 it was > 10 µM (inactive); with A498, 2.82 µM (inactive); in the test with SF-295, 4.55 µM (inactive); in the test with IGROV-1, 3.02 µM (inactive); with UO-31, 4.17 µM (inactive).

On to `O=C(O)/C=C/c1c2ccc(=O)c(O)c-2oc2c(O)c(O)ccc12`, for which the GI50 is 48 µM (inactive) in the test with SNB-75; 25.3 µM (inactive) with KM12; > 100 µM (inactive) in the test with T47D; 98.4 µM (inactive) with SK-OV-3; > 100 µM (inactive) with SNB-19; 47.4 µM (inactive) in the test on M14. Moreover, the GI50 is 32.3 µM (inactive) with A549; 15.3 µM (inactive) in the test on SN12C; 21.7 µM (inactive) in the test with K562; 54 µM (inactive) in the test with SK-MEL-5; 50.1 µM (inactive) in the test on UACC-62; 20.7 µM (inactive) in the test with SW-620. In addition, the GI50 was 23.2 µM (inactive) with RPMI-8226; 24.9 µM (inactive) in the test on EKVX; 40.1 µM (inactive) in the test with OVCAR-8; > 100 µM (inactive) in the test with A498; 24.4 µM (inactive) with SF-295; 82.6 µM (inactive) with IGROV-1. Moreover, in the test with UO-31, the GI50 is 33.9 µM (inactive).
